Assay [1] has as its target T1, Adrenergic β2 (Homo sapiens, UniProt P07550).
T1 construct: Adherent H292 cells were removed from tissue culture flasks; endogenous in cells; host or cells: H292 cells
Kind of assay: Adrenergic β2 mediated cAMP production in H292 cells (AlphaScreen cAMP detection). The assay is classed as cell-based. The arrangement: key to β2 Int Act: fraction of formoterol maximum activity (formoterol = 1). The procedure: Adrenergic β2 Mediated cAMP Production
H292 cells were grown in 225 cm2 flasks incubator at 37° C., 5% CO2 in RPMI medium containing, 10% (v/v) FBS (foetal bovine serum) and 2 mM L-glutamine.
Adherent H292 cells were removed from tissue culture flasks by treatment with Accutase™ cell detachment solution for 15 minutes. Flasks were incubated for 15 minutes in a humidified incubator at 37° C., 5% CO2. Detached cells were re-suspended in RPMI media (containing 10% (v/v) FBS and 2 mM L-glutamine) at 1×10^6 cells per mL. 10000 cells in 100 μL were added to each well of a tissue-culture-treated 96-well plate and the cells incubated overnight in a humidified incubator at 37° C., 5% CO2. The culture media was removed and cells were washed twice with 100 μL assay buffer and replaced with 50 μL assay buffer (HBSS solution containing 10 mM HEPES pH7.4 and 5 mM glucose). Cells were rested at room temperature for 20 minutes after which time 25 μL of rolipram (1.2 mM made up in assay buffer containing 2.4% (v/v) dimethylsulphoxide) was added. Cells were incubated with rolipram for 10 minutes after which time test compounds were added and the cells were incubated for 60 minutes at room temperature. The final rolipram concentration in the assay was 300 μM and final vehicle concentration was 1.6% (v/v) dimethylsulphoxide. The reaction was stopped by removing supernatants, washing once with 100 μL assay buffer and replacing with 50 μL lysis buffer. The cell monolayer was frozen at −80° C. for 30 minutes (or overnight).
AlphaScreen™ cAMP Detection
The concentration of cAMP (cyclic adenosine monophosphate) in the cell lysate was determined using AlphaScreen™ methodology. The frozen cell plate was thawed for 20 minutes on a plate shaker then 10 μL of the cell lysate was transferred to a 96-well white plate. 40 μL of mixed AlphaScreen™ detection beads pre-incubated with biotinylated cAMP, was added to each well and the plate incubated at room temperature for 10 hours in the dark. The AlphaScreen™ signal was measured using an EnVision spectrophotometer (Perkin-Elmer Inc.) with the recommended manufacturer's settings. cAMP concentrations were determined by reference to a calibration curve determined in the same experiment using standard cAMP concentrations. Concentration response curves for agonists were constructed and data was fitted to a four parameter logistic equation to determine both the pEC50 and Intrinsic Activity. Intrinsic Activity was expressed as a fraction relative to the maximum activity determined for formoterol in each experiment.
(In general: Changes in cAMP serve as a functional read-out for many G protein-coupled receptors.)

For assay [2], the target named is T2, recombinant human α1D receptor (Homo sapiens, UniProt P25100).
T2 construct: expressed in transfected cells; host or cells: human embryonic kidney 293 cells (HEK93 [sic]), membranes
T2 sequence (P25100 1-572): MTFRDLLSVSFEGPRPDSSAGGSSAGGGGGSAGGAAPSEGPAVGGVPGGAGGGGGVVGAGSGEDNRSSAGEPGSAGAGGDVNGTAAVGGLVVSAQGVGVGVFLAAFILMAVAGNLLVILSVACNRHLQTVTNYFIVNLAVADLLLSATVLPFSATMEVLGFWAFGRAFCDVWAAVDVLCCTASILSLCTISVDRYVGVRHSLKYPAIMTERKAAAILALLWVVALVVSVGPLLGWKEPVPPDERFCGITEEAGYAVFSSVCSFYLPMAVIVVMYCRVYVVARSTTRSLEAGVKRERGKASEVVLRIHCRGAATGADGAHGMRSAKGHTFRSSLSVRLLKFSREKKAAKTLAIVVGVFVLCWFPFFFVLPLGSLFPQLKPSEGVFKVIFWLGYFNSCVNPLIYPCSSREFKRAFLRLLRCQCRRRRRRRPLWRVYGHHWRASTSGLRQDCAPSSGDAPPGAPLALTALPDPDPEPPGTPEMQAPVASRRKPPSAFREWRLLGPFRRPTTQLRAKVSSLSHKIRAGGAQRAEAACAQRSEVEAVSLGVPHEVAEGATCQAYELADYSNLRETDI
As to the kind of experiment: Adrenergic α1D selectivity assay, [3H]-prazosin binding to membranes. Conditions: inhibition of [3H]-prazosin binding, HEK cell membranes, read-out: α1 bind pIC50 (converted). The procedure:
Membranes were prepared from human embryonic kidney 293 ([…]) cells expressing recombinant human α1D receptor. These were diluted in Assay Buffer (50 mM HEPES, 1 mM EDTA, pH 7.4) to provide a final concentration of membranes that gave a clear window between maximum and minimum specific binding.
(§1) Assays were performed in U-bottomed 96-well polypropylene plates. 10 μL [^3H]-prazosin (0.3 nM final concentration) and 10 mL of test compound (10× final concentration) were added to each test well. For each assay plate 8 replicates were obtained for [^3H]-prazosin binding in the presence of 10 μL vehicle (10% (v/v) DMSO in Assay Buffer; defining maximum binding) or 10 μL BMY7378 (10 μM final concentration; defining non-specific binding (NSB)). Membranes were then added to achieve a final volume of 100 μL. The plates were incubated for 2 hours at room temperature and then filtered onto PEI coated GF/B filter plates, pre-soaked for 1 hour in Assay Buffer, using a 96-well plate Tomtec cell harvester. Five washes with 250 μL wash buffer (50 mM HEPES, 1 mM EDTA, pH 7.4) were performed at 4° C. to remove unbound radioactivity. The plates were dried then sealed from underneath using Packard plate sealers and MicroScint-O (50 μL) was added to each well. The plates were sealed (TopSeal A) and filter-bound radioactivity was measured with a scintillation counter (TopCount, Packard BioScience) using a 3-minute counting protocol.
Total specific binding (B0) was determined by subtracting the mean NSB from the mean maximum binding. NSB values were also subtracted from values from all other wells. […] Data was fitted to a four parameter logistic equation to determine the compound potency, which was expressed as pIC50 (negative log molar concentration inducing 50% inhibition of [^3H]-prazosin binding).

The target in assay [3] is T3, recombinant human adrenergic beta 1 receptors (Homo sapiens, UniProt P08588).
T3 construct: purchased Euroscreen
T3 sequence (P08588 whole entry): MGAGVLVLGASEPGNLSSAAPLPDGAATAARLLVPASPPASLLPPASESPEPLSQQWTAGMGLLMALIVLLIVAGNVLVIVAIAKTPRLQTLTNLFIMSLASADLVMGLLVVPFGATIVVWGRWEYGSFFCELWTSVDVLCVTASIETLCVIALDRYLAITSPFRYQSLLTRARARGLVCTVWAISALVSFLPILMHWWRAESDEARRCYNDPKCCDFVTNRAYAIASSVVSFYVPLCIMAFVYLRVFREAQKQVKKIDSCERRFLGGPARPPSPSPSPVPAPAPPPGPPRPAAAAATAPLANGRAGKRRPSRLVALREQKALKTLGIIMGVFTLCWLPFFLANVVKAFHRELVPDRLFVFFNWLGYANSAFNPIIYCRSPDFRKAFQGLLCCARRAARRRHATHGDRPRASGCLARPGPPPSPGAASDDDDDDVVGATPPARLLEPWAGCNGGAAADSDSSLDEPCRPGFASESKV
As to the kind of experiment: Adrenergic β1 selectivity assay, [125I]-Iodocyanopindolol binding to membranes. To be noted: inhibition of [125I]-Iodocyanopindolol binding, read-out: β1 bind pIC50 (converted). The procedure: Membranes containing recombinant human adrenergic beta 1 receptors were obtained from Euroscreen. These were diluted in Assay Buffer (50 mM HEPES, 1 mM EDTA, 120 mM NaCl, 0.1% gelatin, pH 7.4) to provide a final concentration of membranes that gave a clear window between maximum and minimum specific binding.
as §1, with “[^125I]-Iodocyanopindolol (0.036” for “[^3H]-prazosin (0.3”, “μL” for “mL”, “[^125I]-Iodocyanopindolol” for “[^3H]-prazosin”, “Propranolol” for “BMY7378”, “EDTA, 120 mM NaCl,” for “EDTA,”
Total specific binding (B0) was determined by subtracting the mean NSB from the mean maximum binding. NSB values were also subtracted from values from all other wells. […] Data was fitted to a four parameter logistic equation to determine the compound potency, which was expressed as pIC50 (negative log molar concentration inducing 50% inhibition of [^125I]-Iodocyanopindolol binding).

T1 sequence (P07550 whole entry): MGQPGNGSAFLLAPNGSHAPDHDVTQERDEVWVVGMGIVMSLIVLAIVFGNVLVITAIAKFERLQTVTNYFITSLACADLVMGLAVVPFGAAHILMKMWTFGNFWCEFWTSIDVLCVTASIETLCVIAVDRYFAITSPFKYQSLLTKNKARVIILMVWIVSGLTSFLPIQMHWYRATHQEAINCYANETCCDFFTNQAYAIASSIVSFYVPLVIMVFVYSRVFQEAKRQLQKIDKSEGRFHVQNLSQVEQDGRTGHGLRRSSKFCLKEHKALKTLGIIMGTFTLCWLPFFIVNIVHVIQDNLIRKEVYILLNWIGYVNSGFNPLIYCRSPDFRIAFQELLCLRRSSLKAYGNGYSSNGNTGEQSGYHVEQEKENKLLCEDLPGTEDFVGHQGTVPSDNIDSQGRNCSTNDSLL

Regarding `O=C1COc2c(CCNCCN(C(=O)CCNCCc3cc(Cl)ccc3F)C3CCCCC3)ccc(O)c2N1` [Example 34, 3-(5-Chloro-2-fluorophenethylamino)-N-cyclohexyl-N-(2-(2-(5-hydroxy-3-oxo-3,4-dihydro-2H-benzo[b][1,4]oxazin-8-yl)ethylamino)ethyl)propanamide bis(trifluoroacetate)], the “β2 Int Act” value in assay [1] (Intrinsic Activity as a fraction relative to the maximum activity determined for formoterol) is listed as 0.9. Moreover, in assay [1] (cAMP production, 60 minutes at room temperature, 300 μM rolipram, read-out: β2 pEC50 (converted)), the EC50 is 0.00158 µM. Besides, the IC50 in assay [2] was 0.0631 µM; in assay [3] it was 1 µM.

For the origin of these results see patent US20100056508A1, “AMINE DERIVATIVES AND THEIR USE IN BETA-2-ADRENORECEPTOR MEDIATED DISEASES” (ASTRAZENECA AB, priority 2006, published 2010).
